Experimental data reported in patent US9301962B2, “Male contraceptive compositions and methods of use” (Baylor College of Medicine, priority 2010, dated 2016).

How the values were obtained:
BRDT(1) = BRDT(1) (Homo sapiens, UniProt Q58F21); settings: alpha-screen, H4Kac4 competition
Description: The N-terminal domain of human BRDT was cloned, expressed in E-Coli and purified as previously described (Filippakopoulos et al.).
Assays were performed with minor modifications from the manufacturer's protocol (PerkinElmer, USA). All reagents were diluted in 50 mM HEPES, 150 mM NaCl, 0.1% w/v BSA, 0.01% w/v Tween20, pH 7.5 and allowed to equilibrate to room temperature prior to addition to plates. After addition of Alpha beads to master solutions all subsequent steps were performed in low light conditions. […] Addition to wells was performed with either a multichannel pipet (for optimization experiments) or a Biotek EL406 liquid handler. After a 1 minute 1000 rpm spin-down, 100 nl of compounds from stock plates were added by pin transfer using a Janus Workstation (PerkinElmer, USA). The streptavidin-coated donor beads (25 μg/ml final) were added as with previous solution in a 2×, 10 μl volume. Following this addition, the plates were sealed with foil to block light exposure and to prevent evaporation. The plates were spun down again at 1000 rpm for 1 minute.

[1] = tested on: C57BL6/J/129S5 hybrid male mice; assay: Mouse study: testes size and histology after daily i.p. JQ1
Description: (§1) The subsequent mixture was injected intraperitoneal into male mice at 1% of the body weight of the mouse (final amount is 50 mg/kg/day). The control was DMSO dissolved 1:10 in (2-Hydroxypropyl)-β-cyclodextrin and injected similarly. […] These studies were approved by the Administrative Committee on Laboratory Animal Care at Baylor College of Medicine, and all experiments were conducted in accordance with the NIH guide for the Care and Use of Laboratory Animals.

[2] = tested on: C57BL6/J/129S5 hybrid male mice; assay: Male fertility, fertilization and embryo developmental potential
Description: Oocytes from these females were collected from their oviductal ampulla and cultured for 2 days to determine their developmental potential post-mating (FIG. 6B).
as §1

| Compound | activity for BRDT(1) (BRDT(1)) | Leydig cells of the testes, histology ([1]; 50 mg/kg/day i.p.) | gross testes size compared to control males ([1]; 50 mg/kg/day i.p.) | testosterone-responsive seminal vesicles, gross appearance ([1]; 50 mg/kg/day i.p.) | testis histology ([1]; 50 mg/kg/day i.p., 6 weeks treatment) | number of spermatids positive for transition protein 1 (TNP1) ([1]; immunohistochemistry of testes) | crossing of the blood:testis boundary ([1]; inferred from effect on seminiferous tubule compartment) | mating behavior (copulation plugs) ([2]; after 5 weeks of treatment, superovulated females) | effect on impregnation of females ([2]; males treated 3 weeks, housed with 2 females each, 3 more weeks of treatment, n=3) | treated adult male mice that sired two litters after cessation ([2]; within the first month following cessation of JQ1) |
| --- | --- | --- | --- | --- | --- | --- | --- | --- | --- | --- |
| Cc1sc2c(c1C)C(c1ccc(Cl)cc1)=N[C@H](CC(=O)OC(C)(C)C)c1nnc(C)n1-2 (racemic) [(−)-JQ1] | inactive |  |  |  |  |  |  |  |  |  |
| Cc1sc2c(c1C)C(c1ccc(Cl)cc1)=NC(CC(=O)OC(C)(C)C)c1nnc(C)n1-2 (racemic) [JQ1, tert-Butyl 2-(4-(4-chlorophenyl)-2,3,9-trimethyl-6H-thieno[3,2-f][1,2,4]triazolo[4,3-a][1,4]diazepin-6-yl)acetate] |  | histologically normal | grossly smaller testes | grossly normal | seminiferous tubule degeneration | reduced | capable of effectively crossing the blood:testis boundary | did not alter mating behavior | contraceptive effect | 6 of 6 |
